Results: patent US20240335425A1, “PHARMACEUTICAL COMPOSITIONS OF ALPHA-2-ADRENERGIC RECEPTOR AGONISTS AND THEIR USE FOR IMPROVING VISION” (Allergan, Inc., priority 2020, published 2024)
Read-outs that look alike come from different tables or passages of the source.

Experiments:
[1] = Protocol: Aliquots of the PBS only curve were quenched at time zero to be used as stability controls and calibration standards. Following centrifugation, samples were analyzed by LC-MS/MS bioanalysis. Back-calculated concentrations using the assay PBS curve were used for binding and stability calculations.
[2] = molecular target: T1, bovine alpha adrenergic 1A receptor (Bos taurus, UniProt P18130); assay: FLIPR calcium assay, HEK293 cells stably expressing bovine alpha 1A receptor; format: cell-based; details: HEK293 stable cell line, peak calcium signal; read-out: bovine alpha1A EC50 (nm)
T1 construct: expressed in transfected cells
T1 sequence (P18130 1-466): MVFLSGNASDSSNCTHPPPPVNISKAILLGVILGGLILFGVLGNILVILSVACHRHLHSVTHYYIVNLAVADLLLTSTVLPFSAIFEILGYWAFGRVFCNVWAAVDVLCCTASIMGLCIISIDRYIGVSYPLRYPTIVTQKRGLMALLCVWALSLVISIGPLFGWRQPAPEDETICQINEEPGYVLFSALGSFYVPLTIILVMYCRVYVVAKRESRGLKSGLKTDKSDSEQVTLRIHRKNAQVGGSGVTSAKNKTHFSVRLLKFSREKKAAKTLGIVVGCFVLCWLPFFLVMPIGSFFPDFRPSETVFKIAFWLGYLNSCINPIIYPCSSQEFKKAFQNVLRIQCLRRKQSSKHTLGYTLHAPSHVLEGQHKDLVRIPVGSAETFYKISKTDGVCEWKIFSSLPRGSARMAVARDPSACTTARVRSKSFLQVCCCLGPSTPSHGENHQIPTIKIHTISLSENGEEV
Protocol: (§1) An in vitro FLIPR (fluorometric image plate reader) assay was performed on several compounds, including the compound of Formula I (entry 1 in Table 1).
Specifically, four HEK293 stable cell lines were used in the FLIPR assay. The HEK293 cell line which stably expressed the bovine alpha adrenergic 1A receptor was used to characterize the alpha1 pharmacology. The alpha-2 adrenergic receptor family is a G coupled G-protein receptor. Therefore, in order to use these cell lines in the calcium based FLIPR assay, the chimeric G-protein Gqi5 was used to force the coupling of the human alpha-2A, alpha-2B, and alpha-2C receptors to the calcium pathway. […]
(§2) The receptor activation was initiated by the addition of the appropriate dilutions of compounds and the transient calcium signal was captured. The peak height of the calcium curve was determined and utilized for calculation of EC50 and relative efficacy values using Activity Base software. EC50 was calculated using a 4 Parameter Logistic Equation: y=A+((B−A)/(1+((C/x)^D))) where A and B represents the bottom and top plateau of the curve; C represents the EC50 value; D represents the slope factor; and x and y represent the original x (drug concentration) and y (fluorescence signal, RFU) values.

human alpha-2A receptor = molecular target: T2, human alpha-2A receptor (Homo sapiens, UniProt P08913); assay: FLIPR calcium assay, HEK293 cells with human alpha-2A receptor coupled via chimeric Gqi5; format: cell-based
T2 construct: expressed in transfected cells
T2 sequence (P08913 1-465): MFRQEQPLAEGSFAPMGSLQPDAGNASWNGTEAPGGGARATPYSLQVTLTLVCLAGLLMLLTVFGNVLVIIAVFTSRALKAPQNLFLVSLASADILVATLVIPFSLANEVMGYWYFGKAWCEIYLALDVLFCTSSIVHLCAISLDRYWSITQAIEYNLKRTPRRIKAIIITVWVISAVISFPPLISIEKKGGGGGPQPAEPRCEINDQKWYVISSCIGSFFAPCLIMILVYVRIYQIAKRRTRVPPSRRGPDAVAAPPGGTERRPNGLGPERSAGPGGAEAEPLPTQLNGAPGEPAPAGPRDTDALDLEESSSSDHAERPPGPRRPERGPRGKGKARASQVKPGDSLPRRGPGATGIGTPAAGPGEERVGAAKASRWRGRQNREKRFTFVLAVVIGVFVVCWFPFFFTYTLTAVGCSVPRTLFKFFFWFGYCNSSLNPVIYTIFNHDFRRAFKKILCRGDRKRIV
Protocol: as §1
Specifically, four HEK293 stable cell lines were used in the FLIPR assay. The HEK293 cell line which stably expressed the bovine alpha adrenergic 1A receptor was used to characterize the alpha1 pharmacology. The alpha-2 adrenergic receptor family is a G coupled G-protein receptor. Therefore, in order to use these cell lines in the calcium based FLIPR assay, the chimeric G-protein Gqi5 was used to force the coupling of the human alpha-2A, alpha-2B, and alpha-2C receptors to the calcium pathway. Cells were plated, in triplicate, in poly-D-lysine coated 384-well plates at 25,000 cells per well and grown overnight in DMEM supplemented with 10% fetal bovine serum. For FLIPR evaluation, cells were washed twice with HBSS/HEPES buffer (1× Hanks Buffered Salt Solution, 20 mM HEPES, pH 7.4) prior to the addition of Fluo-4-AM (4 uM Fluo-4-AM, 0.04% pluronic acid in HBSS/HEPES buffer), a calcium-sensitive dye. Cells were loaded with dye for 40 minutes at 37° C., and then washed 4 times with HBSS/HEPES buffer to remove the excess dye. The test compounds were profiled at concentrations between 0.64 nM and 10,000 nM using a […] dilution factor.
as §2

healthy participants = assay: Clinical Study 1 in healthy individuals, single ascending dose; format: in vivo, human; details: left eye, 0.01% to 0.1% (w/v)
Excerpt: In this study, 36 healthy participants (male and female; 40 to 65 years of age) are randomized to participate in single-ascending dose cohorts (designated Cohorts 1, 2, and 3 as shown in Table 9 below) to evaluate safety, tolerability, pharmacokinetics, and target engagement of the compound of Formula I. In each cohort of this study 12 participants are randomized in a 3:1 ratio to receive an ophthalmic solution containing the compound of Formula I (9 participants) or vehicle (3 participants). Participants that are randomized to receive the ophthalmic solution containing the compound of Formula I are administered a single drop of the ophthalmic solution containing the compound of Formula I at doses ranging from 0.01% (w/v) to 0.1% (w/v) (Formulations A-C; see Examples 8-10), with the option of also using a 0.3% (w/v) dose (Formulation D; see Example 11), in the left eye, as indicated in Table 7 below (“SD” means single dose and “OS” means left eye).
Each participant is admitted to the study site on the evening before dosing (Day −1). […]
Safety and tolerability are evaluated by monitoring participants in the three cohorts of this study for exhibition/reporting of adverse events and monitoring characteristics/assessments such as vital signs, electrocardiogram measurements, clinical laboratory assessments, study intervention tolerability and drop comfort assessments, intraocular pressure measurements, slit-lamp biomicroscopy, and dilated funduscopic examination. Systemic and local pharmacokinetics of the compound of Formula I are evaluated by measuring plasma and tear concentrations of the compound of Formula I in the participants and also determining pharmacokinetic parameters such as area under the curve, clearance, half-life, maximum concentration, time to maximum concentration. Target engagement is measured by measuring the pupil size of the participants during the study. […]

Dutch Belted rabbits = assay: In vivo rabbit miosis model (pupil diameter after single topical dose); details: for animals with greater than 2.5 mm reduction in pupil size from baseline: 0.1% w:v, scotopic (<10 lux), n=6; for miotic efficacy compared with other alpha adrenergic receptor agonists: low-light conditions (2-10 Lux)
Protocol: Female Dutch Belted rabbits (Covance, Princeton, New Jersey) weighing between 2-4 kg were used for these studies. […] For topical dosing, eye drops (volume=35 μl) were instilled into the lower conjunctival sac of the test eye.
Pupil diameter was measured in both the treated and untreated eye with an Optistick to the nearest 0.5 mm. […]

[3] = tested on: participants diagnosed with presbyopia; assay: Clinical Study 2 in presbyopes, once daily for 14 days; format: in vivo, human
Excerpt: In this study, approximately 108 participants diagnosed with presbyopia (male and female; 40 to 65 years of age) are selected to participate.
Cohorts 4, 5, and 6 (Part A) are multiple ascending dose cohorts in which participants are randomized to receive either the compound of Formula I at doses ranging from 0.01% to 0.1% or vehicle once daily in both eyes for 14 days. Each cohort in Part A consists of 9 participants who receive active intervention (the compound of Formula I) and 3 participants that receive vehicle in order to evaluate safety, tolerability, pharmacokinetics, and clinical efficacy of the compound of Formula I. As with Example 8, after each cohort is completed, the independent data monitoring committee reviews the safety, pharmacokinetic, and target engagement data to determine if it is acceptable to proceed to the next planned dosing cohort. The dose of the compound of Formula I in Part B (Cohorts 7 and 8) is selected by the data monitoring committee after Cohort 6 has completed.
Cohort 7 is a single-masked, active comparator cohort that includes approximately 60 masked participants with presbyopia randomized 1:1 to receive either pilocarpine 1.25% (w/v) ophthalmic solution or an ophthalmic solution of the compound of Formula I administered at the dose strength recommended by the data monitoring committee for 14 days. Safety, tolerability, and efficacy is assessed after topical ocular administration of the compound of Formula I compared with pilocarpine 1.25%. Common adverse events associated with pilocarpine (particularly when administered to the eye) include, for example, headache, brow ache, accommodative change, eye irritation, eye pain, blurred vision, visual impairment, ocular blurring, ocular discomfort, blurry vision, light sensitivity, stinging, and itching.
Cohort 8 is a cohort to evaluate safety, tolerability, pharmacokinetics, and efficacy of the compound of Formula I administered at the dose strength recommended by the data monitoring committee compared with vehicle for 14 days in participants with presbyopia who wear contact lenses (9 participants receive the compound of Formula I and 3 participants receive vehicle).
In all cohorts of this study (Cohorts 4 to 8), participants receive their first dose in clinic on Day 1, and stay in clinic for safety, pharmacokinetic, and efficacy evaluations for 10 hours post-dose. The participants then return for dosing and safety evaluations once daily from Day 2 to Day 7. They then receive multidose bottles for single unit of use for at-home dosing from Days 8 to 13 and return to the clinic on Day 14 for dosing as well as safety, tolerability, pharmacokinetic (Cohorts 4 to 6, and 8 only), and efficacy evaluations for 10 hours post-dose. On Day 30, participants return for a safety follow-up and close out visit.
In Parts A and B of this study, safety and tolerability are evaluated as in Example 12 (i.e. by monitoring participants in the three cohorts for exhibition/reporting of adverse events and monitoring the characteristics/assessments as are monitored in Example 12), with the additional characteristics/assessments of contrast sensitivity, photopic (e.g. ≥80 cd/m^2; 251 lux at target) and mesopic (e.g. 3.2 to 3.5 cd/m^2; 10 to 11 lux at target) high contrast corrected distance visual acuity (each eye and binocularly), manifest refraction (mesopic and photopic) also being measured in Part A. Systemic and local pharmacokinetics of the compound of Formula I are evaluated by measuring plasma and tear concentrations of the compound of Formula I in the participants and also determining pharmacokinetic parameters as is done in Example 12. Target engagement is measured by measuring the pupil size of the participants during the study as is done in Example 12. […]

presbyopic patients = details: different lighting conditions; cited from earlier work
[4] = HEK293 stable cell line with Gqi5, peak calcium signal, read-out: human alpha2A EC50 (nm)
[5] = Part A, bilaterally for 14 days
[6] = Part B, Cohort 8, contact lens wearers, 14 days

SMILES: Cc1c(N=C2NCCN2)ccc2[nH]cnc12 [Compound 1]
- melanin binding (in words) [1]: no significant melanin binding
- EC50 [2]: 286 nM
- EC50 (human alpha-2A receptor; [4]): 0.7 nM
- pupil diameter compared with vehicle (healthy participants): decrease in pupil diameter
- safety and tolerability (healthy participants): acceptable safety and tolerability profiles
- systemic exposures (healthy participants): sufficient safety margins
- animals with greater than 2.5 mm reduction in pupil size from baseline (Dutch Belted rabbits; after 6 hours): more than half
- animals with greater than 2.5 mm reduction in pupil size from baseline (Dutch Belted rabbits; two hours after dosing): virtually all animals
- miotic action (peak pupil constriction and duration) (Dutch Belted rabbits; room lighting conditions, versus brimonidine): greater miotic action than brimonidine
- effect on pupil constriction compared to Compound 3 (Dutch Belted rabbits; topical dose): greater effect on pupil constriction
- pupil constriction at 9 hours after dosing (Dutch Belted rabbits; topical dose, 9 hours): significant pupil constriction
- miotic efficacy compared with other alpha adrenergic receptor agonists (Dutch Belted rabbits; topical dose): best miotic effect
- depth of focus compared with vehicle [3, 5]: improved depth of focus
- distance corrected near visual acuity compared with vehicle [3, 5]: numeric improvement (e.g. two or three lines)
- patient reported outcome questionnaires/questions compared with vehicle [3, 5]: more positive answers
- pupil diameter compared with vehicle [3, 5]: decrease in pupil diameter
- systemic exposures [3, 5]: sufficient safety margins
- safety and tolerability ([3]; Part A, bilaterally for 14 days, 0.01% to 0.1%): acceptable (or improved) safety and tolerability profiles
- safety and tolerability compared with 1.25% (w/v) pilocarpine ([3]; Part B, Cohort 7): acceptable (or improved
- depth of focus compared with vehicle [3, 6]: improved depth of focus
- distance corrected near (and/or intermediate) visual acuity compared with vehicle [3, 6]: numeric improvement (e.g. two or three lines)
- patient reported outcome questionnaires/questions compared with vehicle [3, 6]: more positive answers
- safety and tolerability ([3]; Part B, both cohorts, bilaterally for 14 days): acceptable safety and tolerability profiles

SMILES: CCc1c(N=C2NCCN2)ccc2[nH]cnc12 [Compound 2, reference compound]
- EC50 (human alpha-2A receptor): 11 nM
- miotic efficacy compared with other alpha adrenergic receptor agonists (Dutch Belted rabbits; topical dose): much less than brimonidine

SMILES: Brc1c(N=C2NCCN2)ccc2[nH]cnc12 [Compound 3, reference compound]
- EC50 (human alpha-2A receptor; [4]): 1 nM
- miotic efficacy compared with other alpha adrenergic receptor agonists (Dutch Belted rabbits; topical dose): much less than brimonidine

SMILES: Brc1c(NC2=NCCN2)ccc2nccnc12 [Compound 4, brimonidine, reference compound]
- melanin binding (in words) [1]: much more significant binding
- EC50 [2]: 1200 nM
- animals with greater than 2.5 mm reduction in pupil size from baseline (Dutch Belted rabbits; after 6 hours): virtually none of the animals
- animals with greater than 2.5 mm reduction in pupil size from baseline (Dutch Belted rabbits; half hour after dosing): much less than half of the animals
- average pupil size after brimonidine (presbyopic patients): 3.4 mm
